The subject of experiment [1] is Isolated Hepatocyte Cholesterol Biosynthesis. The experiment can be described thus: Test B: Isolated Hepatocyte Cholesterol Biosynthesis Assay. The experiment is classed as cell-based, male Wistar rats. As to conditions: rat hepatocytes, 10 min preincubation, 60 min incubation at 37°, pH 7.35, read-out: IC50, Inhibition of Isolated Hepatocyte Cholesterol Biosynthesis. On the procedure: Intact parenchymal hepatocytes were isolated from male Wistar rats (180-280 g) fed cholestyramine containing or normal diet, using the collagenase perfusion method essentially as described by Seglen, in Methods in Cell Biology (D. Prescott, ed.) Vol. 13, pp. 29-83, Academic Press, New York (1976). Cell preparations were used only when viability (trypan blue exclusion) exceeded 90%. Cholesterol biosynthesis was determined as the incorporation by hepatocytes of ^3 H from [^3 H]-water into total (cellular plus medium) 3β-hydroxy sterols as per Ingebritsen, et al., J. Biol. Chem., 254, 9986-9989 (1979). Hepatocyte sterols and lipids were isolated by a modification of the methods described by Kates, in Techniques in Lipidology, (M. Kates, ed.), pp. 349, 360-363, North Holland Publ. Co., Amsterdam, 1972. To isolate sterols, cells are extracted with methanol:chloroform:water (2:1:0.8), the chloroform phase is separated and extracted with benzene to remove traces of water, then dried under nitrogen. The residue is saponified at 75° C. with 0.30N NaOH in methanol:water (9:1). The alkaline mixture is then extracted three times with petroleum ether to yield the non-saponifiable lipids which include the free as well as initially esterified cholesterol. The extract is dried under nitrogen in the presence of carrier cholesterol (0.1 mg) and 10% benzene, and the residue is dissolved in acetone:ethanol (1:1). Finally, the 3β-hydroxysterols are precipitated with an excess of digitonin, the precipitate is washed in acetone, dried under nitrogen, and dissolved in toluene:methanol (1:1). The ^3 H-labelled sterols are quantified by liquid scintillation and corrected for counting efficiency. In some tests ^14 C-cholesterol was added to initial extractions as an index of recovery, which averaged 80±3%. […]

The target in experiment [2] is T1, rat liver HMG-CoA reductase (Rattus norvegicus, UniProt P51639).
T1 construct: from tissue; host or cells: rat liver microsomes
T1 sequence (P51639 1-887): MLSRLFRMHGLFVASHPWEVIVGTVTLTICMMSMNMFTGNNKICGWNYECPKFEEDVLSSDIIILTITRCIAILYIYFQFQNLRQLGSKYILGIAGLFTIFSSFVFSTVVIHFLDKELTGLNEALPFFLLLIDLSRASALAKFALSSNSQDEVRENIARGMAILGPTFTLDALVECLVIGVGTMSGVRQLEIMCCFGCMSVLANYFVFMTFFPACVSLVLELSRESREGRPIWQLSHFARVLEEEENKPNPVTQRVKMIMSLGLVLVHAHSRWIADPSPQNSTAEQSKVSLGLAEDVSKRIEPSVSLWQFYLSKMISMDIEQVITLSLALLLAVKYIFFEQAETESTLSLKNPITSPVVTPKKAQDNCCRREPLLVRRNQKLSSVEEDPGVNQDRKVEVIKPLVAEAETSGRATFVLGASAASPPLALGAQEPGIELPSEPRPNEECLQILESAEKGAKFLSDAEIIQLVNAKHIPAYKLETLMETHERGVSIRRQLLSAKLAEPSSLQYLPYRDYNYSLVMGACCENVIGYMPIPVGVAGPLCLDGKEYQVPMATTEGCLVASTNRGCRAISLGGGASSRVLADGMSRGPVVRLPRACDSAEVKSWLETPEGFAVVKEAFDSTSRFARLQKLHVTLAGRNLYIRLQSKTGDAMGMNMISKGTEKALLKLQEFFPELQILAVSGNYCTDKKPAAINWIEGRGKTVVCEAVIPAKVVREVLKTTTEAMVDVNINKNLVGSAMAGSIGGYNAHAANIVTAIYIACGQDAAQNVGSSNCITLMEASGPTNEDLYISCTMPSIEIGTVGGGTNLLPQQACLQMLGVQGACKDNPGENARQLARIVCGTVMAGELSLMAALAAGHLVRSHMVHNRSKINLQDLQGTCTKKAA
As to the kind of experiment: Test A: In Vitro Inhibition of Microsomal HMG-CoA Reductase. The experiment is classed as biochemical. The settings on record: rat liver microsomes; 0.33 mM d,1-[3-14C]-HMG-CoA, 3.0 mM NADPH, pH 7.2. Here is the method:
The intact, fully activated microsomal form of rat liver HMG-CoA reductase (subunit MW ca 100,000 daltons) was prepared as described by Parker, et al., Biochem. Biophys. Res. Commun., 125, 629-635 (1984), and used as the source of enzyme for assays. HMG-CoA reductase activity was determined essentially by the method of Shapiro, et al., Biochem. Biophys. Acta., 370, 369-377 (1974), with modifications as described by Ingebritsen and Gibson, Meth. Enzymol. 71, 486-497 (1981) with the exception that the internal standard ^3 H-mevalonolactone is added after termination of the assay. […]
To measure reductase inhibition, test compounds dissolved in water or dimethylsulfoxide and diluted in buffer A (50 mM imidazole-HCl, 250 mM NaCl, 1 mM EDTA, 1 mM EGTA, 5 mM DTT, 20 μM leupeptin, pH=7.2) were incubated with aliquots of microsomes (80-160 μg protein in buffer A) followed by addition of d,1-[3-^14 C]-HMG-CoA (0.33 mM, 2.0 dpm/picomole) and NADPH (3.0 mM). The 50 percent inhibitory concentration (IC50) for each compound in Table 1 was calculated from the linear regression line of the percent decrease (from control) in enzyme activity vs. log concentration of inhibitor, determined using at least 4 dilutions of each test compound assayed in duplicate.
(Liver microsomes are vesicles of endoplasmic reticulum, rich in cytochrome P450 enzymes.)

Counter-ions that a name gives are not always drawn.

The values that follow come from patent publication US4870187A, “Antihypercholesterolemic tetrazol-1-yl compounds” (Bristol-Myers Company, priority 1988, dated 1989).

As a reminder, the IC50 is the midpoint of a concentration-inhibition curve. Turning to `Cc1nnnn1C(/C=C/C(O)CC(O)CC(=O)O)=C(c1ccc(F)cc1)c1ccc(F)cc1` (centres unmarked) [Example 20], the IC50 in experiment [1] was found to be 100 nM; in experiment [2] it was 750 nM.

In the case of `O=C(O)CC(O)CC(O)/C=C/C(=C(c1ccc(F)cc1)c1ccc(F)cc1)n1cnnn1` (centres unmarked) [Example 28, 9,9-Bis(4-fluorophenyl)-3,5-dihydroxy-8-(1H-tetrazol-1-yl)-6,8-nonadienoic acid, sodium salt], the IC50 in experiment [1] came to 20 nM; in experiment [2], 120 nM.

`CC[C@H](C)C(=O)O[C@H]1C[C@@H](C)C=C2C=C[C@H](C)[C@H](CC[C@@H]3C[C@@H](O)CC(=O)O3)[C@H]21` [Mevinolin (Lovastatin), Mevinolin, reference compound]: the IC50 in experiment [1] stood at 46 ± 26 nM.
